The test system of this experiment is increased blood flow through the facial skin caused by endogenous CGRP. Nature of the experiment: Trigeminal ganglion stimulation in marmosets: facial skin blood flow (laser Doppler). The class given is in vivo, marmoset. Conditions: anaesthetized marmosets, i.v. 5 minutes before trigeminal ganglion stimulation (10 Hz, 2 mA, 2 msec, 30 seconds). On the procedure:
The efficacy of the following test substances was characterised by determining the dose administered i.v. which reduces by 50% the increased blood flow through the skin of the face which has been brought about by endogenous CGRP:
Marmosets of both sexes (300-400 g) are anaesthetized with pentobarbital (initially with 30 mg/kg, i.p., followed by infusion of 6 mg/kg/h, […].). The body temperature is maintained at 37° C. using a heating plate. Pancuronium is administered as a muscle relaxant (initially 1 mg/kg, 0.5 mg after each hour thereafter). The animal's head is secured in a stereotactical apparatus. After the skin on the head has been opened using a lengthwise incision, a small hole is drilled in the skull and a bipolar electrode (Rhodes SNES 100) is lowered into the trigeminal ganglion. […] The petrous bone serves as a guide for placing the electrode (CCX-Digital X-ray apparatus). The position of the electrode in the ganglion is monitored at the end of each experiment. The stimulation parameters are: 10 Hz, 2 mA, 2 msec, for 30 seconds. The blood flow in the micro-vessels of the facial skin is determined by laser Doppler flow measurement using a PeriFlux Laser Doppler System. The animals are exposed to 2 to 3 stimulation periods at intervals of 30 minutes in each case. The first stimulation serves as a reference value for the other stimulations. The test substances are administered i.v. 5 minutes before the 2nd and 3rd stimulation periods.
As to `CN(C)CCc1c[nH]c2ccc(C[C@H]3COC(=O)N3)cc12` [DB], the “50% dose (i.v. dose which reduces by 50% the increased blood flow through the facial skin caused by endogenous CGRP)” value came out at 0.035 mg/kg.

In the case of `Nc1c(Br)cc(C[C@@H](NC(=O)N2CCC(N3Cc4ccccc4NC3=O)CC2)C(=O)N2CCC(N3CCCCC3)CC2)cc1Br` [AM], the “50% dose (i.v. dose which reduces by 50% the increased blood flow through the facial skin caused by endogenous CGRP)” value amounted to 0.046 mg/kg. Consider `CNS(=O)(=O)Cc1ccc2[nH]cc(CCN(C)C)c2c1` [DA], for which the “50% dose (i.v. dose which reduces by 50% the increased blood flow through the facial skin caused by endogenous CGRP)” value is 0.280 mg/kg.

The record behind these values is patent publication US6521609B1, “Use of CGRP antagonists and CGRP release inhibitors for combating menopausal hot flushes” (Boehringer Ingelheim Pharma KG, priority 1999, dated 2003).
